Experimental data taken from patent US6903052B2, “Nematicidal compositions and methods” (Divergence, Inc., priority 2002, dated 2005).

How the values were obtained:
[1] = tested on: H. glycines; experiment: Nematicidal activity of fatty acid methyl ester emulsions, spectrum (Example 8); type: cell-based, Heterodera glycines; conditions: H. glycines 2nd stage juveniles, scored at 48 hours
Method: (§1) Briefly, the indicated fatty acid emulsions were added and rapidly mixed by swirling. Nematode viability was scored by visual observation and motility assays 24 hours following addition of emulsions (48 hours for plant parasitic nematodes Meloidogyne and Heterodera species). The fatty acid emulsions tested were methyl esters of nonanoic (pelargonic) acid, ricinelaidic acid, ricinoleic acid, vernolic acid, linoleic acid, and oleic acid. […] Results shown are mean % values obtained from multiple independent experiments
(§2) The Caenorhabiditis elegans were mixed stage populations. Similar effects seen on several other free-living nematode species. The Parastrongyloides trichosuri (parasite of Australian bushtail possum) were dauer-like infective 3rd stage larva. Similar effects are also seen against free-living stages. The Meloidogyne incognita and Meloidogyne javanica (root knot nematode) were 2nd stage juveniles (dauer-like infective stage). The Heterodera glycines (soybean cyst nematode) were 2nd stage juveniles (dauer-like infective stage). Finally, the Pratylenchus scribneri (corn lesion nematode) were mixed stage populations.

[2] = tested on: M. javanica; experiment: as above; type: cell-based, Meloidogyne javanica; conditions: M. javanica 2nd stage juveniles, scored at 48 hours
Method: as §1, §2

[3] = tested on: P. scribneri; experiment: as above; type: cell-based, Pratylenchus scribneri; conditions: P. scribneri mixed stage
Method: as §1, §2

[4] = tested on: P. trichosuri; experiment: as above; type: cell-based, Parastrongyloides trichosuri; conditions: P. trichosuri infective 3rd stage larva
Method: as §1, §2

[5] = tested on: free-living, animal parasitic, and plant parasitic nematodes; experiment: Nematicidal activity across the spectrum of nematodes, summary statement (Example 8); type: cell-based; conditions: concentrations of 0.1% and 0.01%
Method: as §1, §2

With `CCCCCCC(O)C/C=C\CCCCCCCC(=O)OC` (stereo not drawn) [Ricinoleic Acid (C18-methyl ester), 12-hydroxy-cis-9-octadecenoic acid methyl ester] the “% Worm Death (24 hr)” value ([1]; 0.001% solution) was “˜40%”, the “% Worm Death (24 hr)” value ([1]; 0.01% solution) was “˜60%” and the “% Worm Death (24 hr)” value ([1]; 0.1% solution) was “˜60%”. The “% Worm Death (48 hr)” value ([2]; 0.01% solution) was 5%, the “% Worm Death (48 hr)” value ([2]; 0.1% solution) was 60% and the “% Worm Death (24 hr)” value ([3]; 0.01% solution) was less than 20%. The “% Worm Death (24 hr)” value ([3]; 0.1% solution) was less than 20%, the “% Worm Death (24 hr)” value ([4]; 0.01% solution) was “˜60%” and the “% Worm Death (24 hr)” value ([4]; 0.1% solution) was “˜50%”. The “Nematicidal activity (in words)” value [5] was “strongly nematicidal”.
